Activity calls are given as the source filed them. No cut-off for these calls is given here.
Columns and labels:
[1] = Stability in human liver S9 fraction assessed as parent compound remaining at 5 uM after 90 mins in presence of NADPH by LC-MS/MS analysis; type: ADME, subcellular; conditions: read-out: Stability
[2] = Stability in rat plasma assessed as parent compound remaining at 100 uM after 4 hrs by LC-MS/MS analysis; type: ADME, cell-free; conditions: read-out: Stability
[3] = Stability in human plasma assessed as parent compound remaining at 100 uM after 4 hrs by LC-MS/MS analysis; type: ADME, cell-free; conditions: read-out: Stability
[4] = Stability in rat liver S9 fraction assessed as parent compound remaining at 5 uM after 90 mins in presence of NADPH by LC-MS/MS analysis; type: ADME, subcellular; conditions: read-out: Stability
[5] = tested on: Mus musculus; experiment: In vivo inhibition of HDAC6 in C57BL/6 mouse assessed as increase in acetylated tubulin level in spleen cytosolic protein extract at 30 mg/kg, ip measured after 24 hrs by ELISA; type: functional, organism-based
[6] = tested on: 697; experiment: Cytotoxicity against human 697 cells after 48 hrs by CellTiter 96 aqueous one solution assay; type: cell-based; conditions: Homo sapiens, 697, 48 h
[7] = tested on: PBMC; experiment: Cytotoxicity against human PBMC cells after 72 hrs by CellTiter 96 aqueous one solution assay; type: cell-based
[8] = Toxicity in C57BL/6 mouse assessed as effect on body weight at 10 mg/kg, ip administered for 5 days/week for two cycles and measured every other day relative to control; type: organism-based; conditions: in vivo, 120 h
[9] = Toxicity in C57BL/6 mouse assessed as effect on body weight at 30 mg/kg, ip administered for 5 days/week for two cycles and measured every other day relative to control; type: organism-based; conditions: in vivo, 120 h
[10] = Toxicity in C57BL/6 mouse assessed as effect on body weight at 50 mg/kg, ip administered for 5 days/week for two cycles and measured every other day relative to control; type: organism-based; conditions: in vivo, 120 h
[11] = Toxicity in C57BL/6 mouse assessed as effect on platelet level at 10 mg/kg, ip administered for 5 days/week for two cycles and measured 60 mins post last dose by cell counter method relative to control; type: organism-based; conditions: in vivo, 1 h
[12] = Toxicity in C57BL/6 mouse assessed as effect on platelet level at 30 mg/kg, ip administered for 5 days/week for two cycles and measured 60 mins post last dose by cell counter method relative to control; type: organism-based; conditions: in vivo, 1 h
[13] = Toxicity in C57BL/6 mouse assessed as effect on platelet level at 50 mg/kg, ip administered for 5 days/week for two cycles and measured 60 mins post last dose by cell counter method relative to control; type: organism-based; conditions: in vivo, 1 h
[14] = Toxicity in C57BL/6 mouse assessed as effect on WBC level at 10 mg/kg, ip administered for 5 days/week for two cycles and measured 60 mins post last dose by beckman coulter counting method relative to control; type: organism-based; conditions: in vivo, 1 h
[15] = Toxicity in C57BL/6 mouse assessed as effect on WBC level at 30 mg/kg, ip administered for 5 days/week for two cycles and measured 60 mins post last dose by beckman coulter counting method relative to control; type: organism-based; conditions: in vivo, 1 h
[16] = Toxicity in C57BL/6 mouse assessed as effect on WBC level at 50 mg/kg, ip administered for 5 days/week for two cycles and measured 60 mins post last dose by beckman coulter counting method relative to control; type: organism-based; conditions: in vivo, 1 h
[17] = Toxicity in C57BL/6 mouse assessed as effect on postural changes up to 50 mg/kg, ip administered for 5 days/week for two cycles and measured daily starting from day 1; type: organism-based; conditions: in vivo, 120 h
[18] = Toxicity in C57BL/6 mouse assessed as inactivity/hyperactivity up to 50 mg/kg, ip administered for 5 days/week for two cycles and measured daily starting from day 1; type: organism-based; conditions: in vivo, 120 h
[19] = Toxicity in C57BL/6 mouse assessed as induction of kyphosis up to 50 mg/kg, ip administered for 5 days/week for two cycles and measured daily starting from day 1; type: organism-based; conditions: in vivo, 120 h
[20] = Toxicity in C57BL/6 mouse assessed as induction of piloerection up to 50 mg/kg, ip administered for 5 days/week for two cycles and measured daily starting from day 1; type: organism-based; conditions: in vivo, 120 h
[21] = Toxicity in C57BL/6 mouse assessed as effect on spasms up to 50 mg/kg, ip administered for 5 days/week for two cycles and measured daily starting from day 1; type: organism-based; conditions: in vivo, 120 h
[22] = Toxicity in C57BL/6 mouse assessed as effect on stool up to 50 mg/kg, ip administered for 5 days/week for two cycles and measured daily starting from day 1; type: organism-based; conditions: in vivo, 120 h
[23] = Toxicity in C57BL/6 mouse assessed as induction of diarrhea up to 50 mg/kg, ip administered for 5 days/week for two cycles and measured daily starting from day 1; type: organism-based; conditions: in vivo, 120 h
[24] = Toxicity in C57BL/6 mouse assessed as effect on grooming up to 50 mg/kg, ip administered for 5 days/week for two cycles; type: organism-based; conditions: in vivo, 120 h
[25] = Toxicity in C57BL/6 mouse assessed as effect on social behavior up to 50 mg/kg, ip administered for 5 days/week for two cycles; type: organism-based; conditions: in vivo, 120 h
[26] = Toxicity in C57BL/6 mouse assessed as induction of leukopenia up to 50 mg/kg, ip administered for 5 days/week for two cycles; type: organism-based; conditions: in vivo, 120 h
[27] = Toxicity in ip dosed C57BL/6 mouse administered for 5 days/week for two cycles; type: organism-based; conditions: in vivo
[28] = Total clearance in CD-1 mouse at […], iv measured within 6 hrs by LC-MS/MS analysis; type: ADME, organism-based; conditions: in vivo
[29] = Apparent volume of distribution at steady state in CD-1 mouse at […], iv measured within 6 hrs by LC-MS/MS analysis; type: ADME, organism-based; conditions: in vivo, read-out: Vdss(app)
[30] = Terminal half life in CD-1 mouse at […], iv measured within 6 hrs by LC-MS/MS analysis; type: ADME, organism-based; conditions: in vivo, read-out: beta t1/2 (converted)
[31] = Oral bioavailability in CD-1 mouse at 5.2 mg/kg measured within 6 hrs by LC-MS/MS analysis; type: ADME, organism-based; conditions: in vivo
[32] = Drug level in CD-1 mouse at […], iv measured after 5 mins by LC-MS/MS analysis; type: ADME, organism-based; conditions: in vivo, read-out: Drug uptake
[33] = Cmax in CD-1 mouse at 5.2 mg/kg, po measured within 6 hrs by LC-MS/MS analysis; type: ADME, organism-based; design: dose 5.2 mg/kg, route oral; conditions: in vivo
[34] = Tmax in CD-1 mouse at 5.2 mg/kg, po measured within 6 hrs by LC-MS/MS analysis; type: ADME, organism-based; conditions: in vivo
[35] = Total AUC in CD-1 mouse at 5.2 mg/kg, po measured within 6 hrs by LC-MS/MS analysis; type: ADME, organism-based; design: dose 5.2 mg/kg, route oral, time AUCmax; conditions: in vivo
[36] = Oral bioavailability in dog; type: ADME, organism-based, Canis lupus familiaris; conditions: in vivo
[37] = Oral bioavailability in rat; type: ADME, organism-based; conditions: in vivo
[38] = Drug level in C57BL/6 mouse plasma at 30 mg/kg, ip measured after 24 hrs; type: ADME, organism-based; conditions: in vivo, BLD = below limit of detection
[39] = Toxicity in C57BL/6 mouse assessed as effect on body temperature up to 50 mg/kg, ip administered for 5 days/week for two cycles and measured daily starting from day 1; type: organism-based; conditions: in vivo, 120 h

Compound: O=C(NO)c1ccc(Cn2nnnc2-c2cccs2)cc1
- remaining at […], 5 µM [1]: 100%
- remaining at 4 h, 100 µM [2]: 62%
- remaining at 4 h, 100 µM [3]: 91%
- remaining at […], 5 µM [4]: 82%
- inhibition [5]: Active
- IC50 [6]: > 1 µM
- IC50 [7]: > 1 µM
- Activity [8]: 2.2%
- Activity [9]: 3.5%
- Activity [10]: 1.4%
- Activity [11]: -5%
- Activity [12]: -7%
- Activity [13]: -1%
- Activity [14]: -4%
- Activity [15]: -11%
- Activity [16]: -15%
- Activity [17]: Non-Toxic
- Activity [18]: Non-Toxic
- Activity [19]: Non-Toxic
- Activity [20]: Non-Toxic
- Activity [21]: Non-Toxic
- Activity [22]: Non-Toxic
- Activity [23]: Non-Toxic
- Activity [24]: Non-Toxic
- Activity [25]: Non-Toxic
- Activity [26]: Non-Toxic
- MTD at 120 h [27]: > 50 mg/kg
- clearance at 6 h [28]: 10.3 L/h/kg
- Vd at 6 h [29]: 4.8 L/kg
- half-life at 6 h [30]: 60 min
- bioavailability [31]: 19%
- concentration at 5 min [32]: 0.685 µg/mL
- Cmax [33]: 0.238 µg/mL
- Tmax [34]: 4.8 min
- AUC at 6 h [35]: 0.094 µg·h/mL
- bioavailability [36]: 16%
- bioavailability [37]: 25%
- Drug uptake [38]: Bld
- Activity [39]: Non-Toxic
